Experimental findings from US7186743B2, “Substituted pyrazolyl compounds for the treatment of inflammation” (Pharmacia Corporation, priority 2001, dated 2007) are described below.

Read-outs that look alike come from different tables or passages of the source.

The test has as its target T1, IKK2 (Homo sapiens, UniProt O14920).
T1 construct: made in house; host or cells: insect cells (baculovirus, pFastBac; SF9)
T1 sequence (O14920 1-756): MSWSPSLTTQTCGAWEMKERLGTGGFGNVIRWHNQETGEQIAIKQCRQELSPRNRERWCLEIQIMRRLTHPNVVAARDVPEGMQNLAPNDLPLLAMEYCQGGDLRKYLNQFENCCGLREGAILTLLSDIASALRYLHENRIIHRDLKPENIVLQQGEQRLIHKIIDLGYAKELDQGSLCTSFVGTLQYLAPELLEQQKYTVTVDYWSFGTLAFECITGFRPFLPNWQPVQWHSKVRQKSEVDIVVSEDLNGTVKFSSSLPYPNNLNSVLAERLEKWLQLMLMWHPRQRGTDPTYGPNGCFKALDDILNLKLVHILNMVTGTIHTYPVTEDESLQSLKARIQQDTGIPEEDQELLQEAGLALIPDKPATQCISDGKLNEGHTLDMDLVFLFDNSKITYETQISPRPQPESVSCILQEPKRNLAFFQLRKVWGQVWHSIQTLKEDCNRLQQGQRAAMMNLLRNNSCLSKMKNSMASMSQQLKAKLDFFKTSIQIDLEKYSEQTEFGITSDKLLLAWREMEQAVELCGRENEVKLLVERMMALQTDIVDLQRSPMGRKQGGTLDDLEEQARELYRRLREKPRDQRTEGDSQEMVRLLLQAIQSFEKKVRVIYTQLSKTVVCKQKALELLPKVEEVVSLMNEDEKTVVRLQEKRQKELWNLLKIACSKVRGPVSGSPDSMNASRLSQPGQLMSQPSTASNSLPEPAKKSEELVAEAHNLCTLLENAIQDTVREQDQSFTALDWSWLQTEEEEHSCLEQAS
The test can be described thus: IKKβ Resin Enzyme Assay (IKK2 resin). Type of test: biochemical. An outline of the steps:
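Enzyme: human IKK2 with a C-terminal FLAG tag, baculovirus-expressed, purified as homodimer on anti-FLAG resin. It phosphorylates a biotinylated IκBα peptide with 1 μM ATP plus [γ-33P]ATP in 25 mM Hepes pH 7.6, Mg/Mn, for 30 min at 25° C. Incorporation is counted by scintillation after anion-exchange resin stop.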

Where [1] appears, read: Table 2, read-out: IKK Resin IC50.
The mark [2] stands for this setting: Table 4, read-out: IKK2 Resin IC50.
The mark [3] stands for this setting: Table 3, read-out: IKK Resin IC50.

For the compound `CS(=O)(=O)c1ccc(-n2nc(C(N)=O)c3c2-c2cc(NC(=O)c4cccc(N)c4Cl)ccc2CC3)cc1` [Example 116, 8-[(3-amino-2-chlorobenzoyl)amino]-1-[4-(methylsulfonyl)phenyl]-4,5-dihydro-1H-benzo[g]indazole-3-carboxamide], the IC50 under setting [1] was no more than 1000 nM.

On to `NC(=O)c1nn(-c2ccc3c(c2)OCO3)c2c1CCc1ccc(NC(=O)c3ccc(F)cc3Cl)cc1-2` [Example 164, 1-(1,3-benzodioxol-5-yl)-8-[(2-chloro-4-fluorobenzoyl)amino]-4,5-dihydro-1H-benzo[g]indazole-3-carboxamide], for which the IC50 under setting [2] was no more than 1000 nM.

As for `CS(=O)(=O)c1ccc(-n2nc(C(N)=O)c3c2-c2cc(NC(=O)c4ccccc4)ccc2CC3)cc1` [Example 140, 8-(benzoylamino)-1-[4-(methylsulfonyl)phenyl]-4,5-dihydro-1H-benzo[g]indazole-3-carboxamide], the IC50 under setting [3] is no more than 1000 nM.

As for `COc1cc(Cl)c(C(=O)Nc2ccc3c(c2)-c2c(c(C(N)=O)nn2-c2ccc4c(c2)OCO4)CC3)cc1OC` [Example 174, 1-(1,3-benzodioxol-5-yl)-8-[(2-chloro-4,5-dimethoxybenzoyl)amino]-4,5-dihydro-1H-benzo[g]indazole-3-carboxamide], the IC50 under setting [2] is no more than 1000 nM.

For `CS(=O)(=O)c1ccc(-n2nc(C(N)=O)c3c2-c2cc(NC(=O)c4cc(F)c(F)cc4[N+](=O)[O-])ccc2CC3)cc1` [Example 149, 8-[(4,5-difluoro-2-nitrobenzoyl)amino]-1-[4-(methylsulfonyl)phenyl]-4,5-dihydro-1H-benzo[g]indazole-3-carboxamide], the IC50 under setting [3] is no more than 1000 nM.

Turning to `CN(C)CCSc1ccc(Cl)c(C(=O)Nc2ccc3c(c2)-c2c(c(C(N)=O)nn2-c2ccc(F)cc2)CC3)n1` [Example 257, 8-{[(3-chloro-6-{[2-(dimethylamino)ethyl]thio}pyridin-2-yl)carbonyl]amino}-1-(4-fluorophenyl)-4,5-dihydro-1H-benzo[g]indazole-3-carboxamide], under “Table 7, read-out: IKK2 Resin IC50”, the IC50 is no more than 1000 nM.

Turning to `CN1CCN(c2ccc(Cl)c(C(=O)Nc3ccc4c(c3)-c3c(c(C(N)=O)nn3-c3ccc5c(c3)OCO5)CC4)n2)CC1` [Example 217, 1-(1,3-benzodioxol-5-yl)-8-({[3-chloro-6-(4-methylpiperazin-1-yl)pyridin-2-yl]carbonyl}amino)-4,5-dihydro-1H-benzo[g]indazole-3-carboxamide], the IC50 (Table 5, read-out: IKK2 Resin Avg. IC50) was no more than 1000 nM.

`CS(=O)(=O)c1ccc(-n2nc(C(N)=O)c3c2-c2cc(NC(=O)c4cccc(Cl)c4Cl)ccc2CC3)cc1` [Example 96, 8-[(2,3-dichlorobenzoyl)amino]-1-[4-(methylsulfonyl)phenyl]-4,5-dihydro-1H-benzo[g]indazole-3-carboxamide]: the IC50 under setting [1] is no more than 1000 nM.

Turning to `C=CCNS(=O)(=O)c1ccc(-n2nc(C(N)=O)c3c2-c2cc(NC(=O)c4ccccc4Cl)ccc2CC3)cc1` [Example 421, 1-{4-[(allylamino)sulfonyl]phenyl}-8-[(2-chlorobenzoyl)amino]-4,5-dihydro-1H-benzo[g]indazole-3-carboxamide], the IC50 (read-out: IKK-2 resin IC50) was no more than 1000 nM.

In the case of `NC(=O)c1nn(-c2ccc(/C=C/n3ccnc3)cc2)c2c1CCc1ccc(NC(=O)c3ccccc3Cl)cc1-2` [Example 293, 8-[(2-chlorobenzoyl)amino]-1-{4-[(E)-2-(1H-imidazol-1-yl)ethenyl]phenyl}-4,5-dihydro-1H-benzo[g]indazole-3-carboxamide], for the setting “Table 11, read-out: IKK2 Resin IC50”, the IC50 is no more than 1000 nM.

Regarding `NC(=O)c1nn(-c2ccc(F)cc2F)c2c1CCc1ccc(NC(=O)c3cccnc3Cl)cc1-2` [Example 366, 8-{[(2-chloropyridin-3-yl)carbonyl]amino}-1-(2,4-difluorophenyl)-4,5-dihydro-1H-benzo[g]indazole-3-carboxamide], the IC50 (Table 14, read-out: IKK2 Resin IC50) was no more than 1000 nM.

Regarding `NC(=O)c1nn(-c2ccc3c(c2)OCO3)c2c1CCc1ccc(NC(=O)c3ccc(C(F)(F)F)nc3Cl)cc1-2` [Example 181, 1-(1,3-benzodioxol-5-yl)-8-({[2-chloro-6-(trifluoromethyl)pyridin-3-yl]carbonyl}amino)-4,5-dihydro-1H-benzo[g]indazole-3-carboxamide], the IC50 under setting [2] is no more than 1000 nM.

The IC50 is the midpoint of a concentration-inhibition curve.
